According to ChEMBL document CHEMBL3259766, “Design, synthesis and biological evaluation of benzylisoquinoline derivatives as multifunctional agents against Alzheimer's disease” (Bioorg Med Chem Lett, 2014):

Legend:
Acetylcholinesterase [1] = molecular target: Acetylcholinesterase (Homo sapiens, UniProt P22303); experiment: Inhibition of AChE in human erythrocytes using acetylthiocholine iodide as substrate preincubated with enzyme for 20 mins followed by substrate addition by Ellman's method; type: cell-based
Chain of Acetylcholinesterase (Homo sapiens, UniProt P22303) (P22303 whole entry): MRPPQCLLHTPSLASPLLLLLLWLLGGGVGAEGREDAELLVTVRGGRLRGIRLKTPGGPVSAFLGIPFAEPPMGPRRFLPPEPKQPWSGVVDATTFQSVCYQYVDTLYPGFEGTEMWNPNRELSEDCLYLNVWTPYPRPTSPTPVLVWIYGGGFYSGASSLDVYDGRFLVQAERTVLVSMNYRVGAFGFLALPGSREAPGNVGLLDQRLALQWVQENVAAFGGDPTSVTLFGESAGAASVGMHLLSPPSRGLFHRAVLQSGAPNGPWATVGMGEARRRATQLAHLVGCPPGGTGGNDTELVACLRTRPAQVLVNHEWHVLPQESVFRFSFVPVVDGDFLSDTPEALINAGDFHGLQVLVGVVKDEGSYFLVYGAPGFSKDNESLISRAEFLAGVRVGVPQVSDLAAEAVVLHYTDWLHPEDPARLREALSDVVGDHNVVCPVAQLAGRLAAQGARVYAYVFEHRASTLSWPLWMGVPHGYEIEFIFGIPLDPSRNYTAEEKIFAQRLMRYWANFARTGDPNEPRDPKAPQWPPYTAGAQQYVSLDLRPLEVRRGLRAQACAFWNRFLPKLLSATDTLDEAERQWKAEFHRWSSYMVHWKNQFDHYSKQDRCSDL

[2] = Selectivity index, ratio of IC50 for BuChE in equine serum to IC50 for electric eel AChE
Homo sapiens = organism: Homo sapiens; experiment: Selectivity index, ratio of IC50 for BuChE in human serum to IC50 for AChE in human erythorcytes; type: cell-based
[3] = molecular target: Amyloid-beta precursor protein (Homo sapiens) (UniProt P05067); experiment: Inhibition of amyloid beta (1 to 42) (unknown origin) self-aggregation at 20 uM after 46 to 48 hrs by thioflavin T based fluorometric assay
Chain of Amyloid-beta precursor protein (Homo sapiens) (P05067 whole entry): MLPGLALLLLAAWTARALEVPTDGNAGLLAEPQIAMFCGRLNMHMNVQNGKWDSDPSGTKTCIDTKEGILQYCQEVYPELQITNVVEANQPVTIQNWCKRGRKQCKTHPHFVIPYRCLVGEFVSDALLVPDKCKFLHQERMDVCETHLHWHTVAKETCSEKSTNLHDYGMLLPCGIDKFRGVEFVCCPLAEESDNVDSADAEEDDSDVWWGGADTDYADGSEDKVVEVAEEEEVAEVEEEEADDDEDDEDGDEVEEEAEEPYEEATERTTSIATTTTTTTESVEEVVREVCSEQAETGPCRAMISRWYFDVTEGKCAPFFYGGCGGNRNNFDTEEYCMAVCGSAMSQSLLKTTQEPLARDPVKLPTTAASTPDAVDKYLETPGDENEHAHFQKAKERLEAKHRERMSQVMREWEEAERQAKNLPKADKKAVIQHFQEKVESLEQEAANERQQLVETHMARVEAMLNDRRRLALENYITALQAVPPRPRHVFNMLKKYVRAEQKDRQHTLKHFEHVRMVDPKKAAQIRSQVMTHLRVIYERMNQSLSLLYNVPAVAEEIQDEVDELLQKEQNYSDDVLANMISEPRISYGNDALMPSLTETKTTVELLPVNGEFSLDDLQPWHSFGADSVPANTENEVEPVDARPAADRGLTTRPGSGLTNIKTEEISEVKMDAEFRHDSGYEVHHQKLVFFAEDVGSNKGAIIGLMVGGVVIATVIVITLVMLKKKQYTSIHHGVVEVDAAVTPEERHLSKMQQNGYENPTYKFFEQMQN

Acetylcholinesterase [4] = molecular target: Acetylcholinesterase (Electrophorus electricus, UniProt O42275); experiment: Inhibition of electric eel AChE using acetylthiocholine iodide as substrate preincubated with enzyme for 6 mins followed by substrate addition by Ellman's method
Chain of Acetylcholinesterase (Electrophorus electricus, UniProt O42275) (O42275 whole entry): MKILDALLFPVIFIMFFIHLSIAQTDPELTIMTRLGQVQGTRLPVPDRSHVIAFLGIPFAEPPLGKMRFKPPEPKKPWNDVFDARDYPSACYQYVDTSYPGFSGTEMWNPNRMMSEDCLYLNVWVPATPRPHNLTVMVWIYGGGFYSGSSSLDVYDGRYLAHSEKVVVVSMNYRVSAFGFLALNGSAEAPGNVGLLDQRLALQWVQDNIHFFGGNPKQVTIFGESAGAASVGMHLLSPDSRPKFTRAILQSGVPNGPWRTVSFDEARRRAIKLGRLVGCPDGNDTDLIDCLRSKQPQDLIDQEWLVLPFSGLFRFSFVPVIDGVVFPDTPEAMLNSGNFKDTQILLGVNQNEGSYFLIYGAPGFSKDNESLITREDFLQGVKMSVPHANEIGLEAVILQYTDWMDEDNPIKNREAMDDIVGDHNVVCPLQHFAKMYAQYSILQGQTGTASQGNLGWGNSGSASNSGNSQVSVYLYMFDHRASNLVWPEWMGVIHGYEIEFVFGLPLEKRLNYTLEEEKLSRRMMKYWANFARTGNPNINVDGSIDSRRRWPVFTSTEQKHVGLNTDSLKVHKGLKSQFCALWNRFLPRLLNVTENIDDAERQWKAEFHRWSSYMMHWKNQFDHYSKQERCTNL

Cholinesterase [5] = molecular target: Cholinesterase (Homo sapiens, UniProt P06276); experiment: Inhibition of BuChE in human serum using S-butyrylthiocholine iodide as substrate preincubated with enzyme for 20 mins followed by substrate addition by Ellman's method
Chain of Cholinesterase (Homo sapiens, UniProt P06276) (P06276 whole entry): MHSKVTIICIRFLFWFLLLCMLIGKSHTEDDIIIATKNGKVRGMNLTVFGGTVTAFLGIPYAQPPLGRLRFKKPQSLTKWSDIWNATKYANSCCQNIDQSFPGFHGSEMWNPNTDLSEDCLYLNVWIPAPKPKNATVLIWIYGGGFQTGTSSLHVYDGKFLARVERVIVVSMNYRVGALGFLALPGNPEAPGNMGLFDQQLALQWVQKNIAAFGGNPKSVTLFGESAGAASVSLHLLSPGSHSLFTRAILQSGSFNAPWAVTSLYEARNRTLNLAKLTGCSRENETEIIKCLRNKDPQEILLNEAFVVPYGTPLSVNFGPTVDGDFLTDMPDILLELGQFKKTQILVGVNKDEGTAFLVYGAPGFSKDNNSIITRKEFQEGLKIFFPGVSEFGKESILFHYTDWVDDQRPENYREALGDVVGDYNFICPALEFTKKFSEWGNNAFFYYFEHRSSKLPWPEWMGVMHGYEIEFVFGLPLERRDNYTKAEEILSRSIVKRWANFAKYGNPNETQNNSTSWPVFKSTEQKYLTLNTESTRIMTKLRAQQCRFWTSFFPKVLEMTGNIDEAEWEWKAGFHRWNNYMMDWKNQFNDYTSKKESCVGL

Cholinesterase [6] = molecular target: Cholinesterase (Equus caballus, UniProt P81908); experiment: Inhibition of BuChE in equine serum using S-butyrylthiocholine iodide as substrate preincubated with enzyme for 6 mins followed by substrate addition by Ellman's method
Chain of Cholinesterase (Equus caballus, UniProt P81908) (P81908 whole entry): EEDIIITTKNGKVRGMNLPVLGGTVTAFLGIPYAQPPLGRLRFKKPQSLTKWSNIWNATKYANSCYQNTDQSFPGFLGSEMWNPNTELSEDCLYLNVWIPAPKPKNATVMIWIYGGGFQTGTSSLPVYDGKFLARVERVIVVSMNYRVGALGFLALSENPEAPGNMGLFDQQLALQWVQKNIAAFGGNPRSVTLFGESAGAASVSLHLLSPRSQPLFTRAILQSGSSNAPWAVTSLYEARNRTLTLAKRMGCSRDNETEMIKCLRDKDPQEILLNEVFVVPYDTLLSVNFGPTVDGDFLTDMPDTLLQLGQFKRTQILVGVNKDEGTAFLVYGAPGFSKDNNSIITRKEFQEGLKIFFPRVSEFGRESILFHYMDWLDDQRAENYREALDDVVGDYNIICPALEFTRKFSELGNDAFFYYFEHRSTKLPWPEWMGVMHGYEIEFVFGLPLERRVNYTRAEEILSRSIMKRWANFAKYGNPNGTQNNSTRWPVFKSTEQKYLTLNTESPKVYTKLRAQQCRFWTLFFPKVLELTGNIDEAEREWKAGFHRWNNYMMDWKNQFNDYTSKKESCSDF

[7] = Cytotoxicity against human SH-SY5Y cells assessed as cell viability at 0.1 uM after 24 hrs by MTT assay; type: cell-based; settings: read-out: Activity
[8] = Cytotoxicity against human SH-SY5Y cells assessed as cell viability at 10 uM after 24 hrs by MTT assay; type: cell-based; settings: read-out: Activity
[9] = Cytotoxicity against human SH-SY5Y cells assessed as cell viability at 0.5 uM after 24 hrs by MTT assay; type: cell-based; settings: read-out: Activity
[10] = Cytotoxicity against human SH-SY5Y cells assessed as cell viability at 5 uM after 24 hrs by MTT assay; type: cell-based; settings: read-out: Activity
[11] = Cytotoxicity against human SH-SY5Y cells assessed as cell viability at 1 uM after 24 hrs by MTT assay; type: cell-based; settings: read-out: Activity
[12] = Cytotoxicity against human SH-SY5Y cells assessed as cell viability at 2 uM after 24 hrs by MTT assay; type: cell-based; settings: read-out: Activity

Row | SMILES | IC50 (Acetylcholinesterase [1]) | Ratio IC50 [2] | Ratio IC50 (Homo sapiens) | inhibition [3] | IC50 (Acetylcholinesterase [4]) | IC50 (Cholinesterase [5]) | IC50 (Cholinesterase [6]) | viability at 24 h, 0.1 µM [7] | viability at 24 h, 10 µM [8] | viability at 24 h, 0.5 µM [9] | viability at 24 h, 5 µM [10] | viability at 24 h, 1 µM [11] | viability at 24 h, 2 µM [12]
1 | COc1cc2c(cc1OC)C(Cc1ccc(OCCCCCCN3CCCC3C)cc1)NCC2 (configuration not stated) | 4.5 µM | 2.5 | 1.43 | 72.3% | 1.34 µM | 6.42 µM | 3.35 µM |  |  |  |  |  | 
2 | COc1cc2c(cc1OC)C(Cc1ccc(OCCCCCCN3CCCC3)cc1)NCC2 (configuration not stated) | 2.98 µM | 2.05 | 0.76 | 69% | 1.28 µM | 2.27 µM | 2.34 µM |  |  |  |  |  | 
3 | CCN(CC)CCCCCCCCOc1ccc(CC2NCCc3cc(OC)c(OC)cc32)cc1 (configuration not stated) |  | 3.17 |  | 39.6% | 6.33 µM |  | 20.1 µM |  |  |  |  |  | 
4 | COc1cc2c(cc1OC)C(Cc1ccc(O)cc1)NCC2 (configuration not stated) | > 100 µM |  |  | 36% | > 100 µM | 46.8 µM | 39.7 µM |  |  |  |  |  | 
5 | CCN(CC)CCCCCCOc1ccc(CC2NCCc3cc(OC)c(OC)cc32)cc1 (configuration not stated) | 4.99 µM | 2.17 | 3.35 | 56.4% | 2.28 µM | 16.7 µM | 4.95 µM |  |  |  |  |  | 
6 | CCN(CC)CCCOc1ccc(CC2NCCc3cc(OC)c(OC)cc32)cc1 (configuration not stated) |  | 1.57 |  | 41.1% | 13.2 µM |  | 20.8 µM |  |  |  |  |  | 
7 | COc1cc2c(cc1OC)C(Cc1ccc(OCCCCCCN(C)C)cc1)NCC2 (configuration not stated) | 7.13 µM | 2.75 | 0.48 | 55.3% | 3.14 µM | 3.43 µM | 8.65 µM |  |  |  |  |  | 
8 | CCCCN(CCCC)CCCCCCOc1ccc(CC2NCCc3cc(OC)c(OC)cc32)cc1 (configuration not stated) | 3.85 µM | 1.01 | 1.56 | 51.4% | 3.43 µM | 6.02 µM | 3.46 µM |  |  |  |  |  | 
9 | COc1cc2c(cc1OC)C(Cc1ccc(OCCCCCCN3CCC(O)(Cc4ccccc4)CC3)cc1)NCC2 (configuration not stated) | 39.6 µM | 0.31 | 0.4 | 62.7% | 41.7 µM | 15.9 µM | 12.8 µM |  |  |  |  |  | 
10 | COc1cc2c(cc1OC)C(Cc1ccc(OCCCCCCN3CCN(Cc4ccccc4)CC3)cc1)NCC2 (configuration not stated) | 5.59 µM | 0.2 | 3.88 | 61.4% | 53.5 µM | 21.7 µM | 10.5 µM |  |  |  |  |  | 
11 | COc1cc2c(cc1OC)C(Cc1ccc(OCCCCCCN3CCC(c4ccccc4)CC3)cc1)NCC2 (configuration not stated) | 9.33 µM | 1.19 |  | 61.2% | 6.69 µM | 9.29 µM | 7.99 µM |  |  |  |  |  | 
12 | CCN(CC)CCCCCOc1ccc(CC2NCCc3cc(OC)c(OC)cc32)cc1 (configuration not stated) |  | 1.46 |  | 34.3% | 7.02 µM |  | 10.3 µM |  |  |  |  |  | 
13 | COc1cc2c(cc1OC)C(Cc1ccc(OCCCCCCN3CCCCC3C)cc1)NCC2 (configuration not stated) | 2.2 µM | 3.29 | 1.49 | 78.4% | 0.95 µM | 5.83 µM | 3.13 µM | 96.8% | 91.1% | 98.8% | 94.5% | 96.8% | 96.1%
14 | COc1cc2c(cc1OC)C(Cc1ccc(OCCCCCCN3CCOCC3)cc1)NCC2 (configuration not stated) | 35.5 µM | 0.45 | 0.29 | 57.4% | 28.6 µM | 10.6 µM | 13 µM |  |  |  |  |  | 
15 | COc1cc2c(cc1OC)C(Cc1ccc(OCCCCCCN3CCC(O)CC3)cc1)NCC2 (configuration not stated) | 9.59 µM | 1.07 | 2.47 | 62.1% | 13.3 µM | 23.7 µM | 14.2 µM |  |  |  |  |  | 
16 | CCN(CC)CCCCCCCOc1ccc(CC2NCCc3cc(OC)c(OC)cc32)cc1 (configuration not stated) |  | 1.96 |  | 43.9% | 4.67 µM |  | 9.13 µM |  |  |  |  |  | 
17 | COc1cc2c(cc1OC)C(Cc1ccc(OCCCCCCN3CCN(c4ccccc4)CC3)cc1)NCC2 (configuration not stated) | 16.3 µM | 0.51 |  | 65.8% | 17.1 µM | 12.9 µM | 8.78 µM |  |  |  |  |  | 
18 | CCCN(CCC)CCCCCCOc1ccc(CC2NCCc3cc(OC)c(OC)cc32)cc1 (configuration not stated) | 3.46 µM | 1.44 | 3.23 | 51.2% | 3.01 µM | 11.2 µM | 4.32 µM |  |  |  |  |  | 
19 | CCN(CC)CCCCOc1ccc(CC2NCCc3cc(OC)c(OC)cc32)cc1 (configuration not stated) |  | 2.02 |  | 47.3% | 7.58 µM |  | 15.3 µM |  |  |  |  |  | 
20 | COc1cc2c(cc1OC)C(Cc1ccc(OCCCCCCN3CCCCC3)cc1)NCC2 (configuration not stated) | 2.14 µM | 1.96 | 1.69 | 76.4% | 1.14 µM | 3.25 µM | 2.51 µM |  |  |  |  |  | 
